Test results: the RepoRT retention time repository (doi:10.1021/acs.analchem.2c02893)

Assay: RP, Thermo Scientific Acclaim RSLC 120 C18, 100 × 2.1 mm, 2.2 µm, 30 °C, 0.2 mL/min, estimated dead time 1.1 min; A: 90% water + 10% methanol + 0.01% formic acid + 5 mM ammonium formate, pH 3.61; B: methanol + 0.01% formic acid + 5 mM ammonium formate, pH 3.61; gradient (min/%B) 0/1 1/1 2/39 13/99.9 15/99.9 15.1/1 20.1/1
Conditions: stereoisomer not certain

Going from `CCNc1nc(Cl)nc(NC(C)(C)C)n1` [Terbuthylazine] to `Nc1nc(N)nc(Cl)n1` [Atrazine-desethyl-desisopropyl], the LC retention time falls from 9.36 min to 3.03 min (3.1-fold).

`CN1CCC(=C2c3ccccc3CC(=O)c3sccc32)CC1` [Ketotifen] and `CN1CCN(C=C2N=C3CN=C(c4ccccc4Cl)c4cc([N+](=O)[O-])ccc4N3C2=O)CC1` [Loprazolam] are within 1.5-fold of each other in LC retention time: 5.54 min for the first, 6.95 min for the second.

`CC(=O)c1ccc2c(c1)N(CCCN(C)C)c1ccccc1S2` [Acepromazine] and `CC(CN1c2ccccc2Sc2ccccc21)N(C)C` (configuration not stated) [Promethazine] are within 1.5-fold of each other in LC retention time: 7.47 min for the first, 7.53 min for the second.

Compared with `CN1C2CC(OC(=O)C(CO)c3ccccc3)CC1C1OC12` (configuration not stated) [Scopolamine], `CC1(C)SC2C(NC(=O)COc3ccccc3)C(=O)N2C1C(=O)O` (configuration not stated) [Penicillin V] is 1.8-fold higher in LC retention time: 3.83 min for the first, 6.8 min for the second.

Going from `CCCCOC(=O)N(C)SN(C)C(=O)Oc1cccc2c1OC(C)(C)C2` [Furathiocarb] to `CN(C)C(=O)Oc1cc(OC(=O)N(C)C)cc(C(O)CNC(C)(C)C)c1` (configuration not stated) [Bambuterol], the LC retention time falls from 12.1 min to 5.16 min (2.3-fold).

Going from `N=C(N)N1CCc2ccccc2C1` [Debrisoquine] to `CCCCCn1cc(C(=O)N2CCN(C)CC2)c2ccccc21` [MEPIRAPIM], the LC retention time rises from 4.39 min to 7.75 min (1.8-fold).

`[O-][n+]1nc(-n2ccnc2)nc2ccc(Cl)cc21` [Triazoxide] and `Clc1ccc(C(Cn2ccnc2)OCc2c(Cl)cccc2Cl)c(Cl)c1` (configuration not stated) [Isoconazole] are within 1.5-fold of each other in LC retention time: 8.37 min for the first, 12.3 min for the second.

`Cc1ccc(S(=O)(=O)NC(=O)NC2C3CCC(C)(C2O)C3(C)C)cc1` (configuration not stated) [Glibornuride] and `COC(=O)c1cccc(C)c1S(=O)(=O)NC(=O)Nc1nc(OCC(F)(F)F)nc(N(C)C)n1` [Triflusulfuron-methyl] are within 1.5-fold of each other in LC retention time: 9.79 min for the first, 9.22 min for the second.

`Cc1cccc(C)c1N(Cn1cccn1)C(=O)CS(C)=O` (configuration not stated) [Metazachlor BH 479-11] and `CCCN1CCCCC1C(=O)Nc1c(C)cccc1C` (configuration not stated) [Ropivacaine] are within 1.5-fold of each other in LC retention time: 5.54 min for the first, 5.39 min for the second.

`CC(=O)N(C)N(C(=O)C(=O)N(C)C)c1ccccc1` [AMDOPH] and `CN(C)S(=O)(=O)Nc1ccccc1` [DMSA (N N-Dimethylaminosulfanilide)] are within 1.5-fold of each other in LC retention time: 5.06 min for the first, 6.28 min for the second.

`CC(=O)C1CCC2C3CCC4=CC(=O)CCC4(C)C3CCC12C` (configuration not stated) [Progesterone] and `CC12CCC3C(CC=C4CC(O)CCC43C)C1CCC2=O` (configuration not stated) [Dhydroepiandrosterone (DHEA) / Androstenolone] are within 1.5-fold of each other in LC retention time: 11.2 min for the first, 10.2 min for the second.

`CC(C)N1CCN(c2ccc(OCC3COC(Cn4cncn4)(c4ccc(Cl)cc4Cl)O3)cc2)CC1` (configuration not stated) [Terconazole] and `FC(F)C(F)(F)OCC(Cn1cncn1)c1ccc(Cl)cc1Cl` (configuration not stated) [Tetraconazole] are within 1.5-fold of each other in LC retention time: 8.2 min for the first, 10.1 min for the second.

`CNC(=O)C(C)SCCSP(=O)(OC)OC` (configuration not stated) [Vamidothion] and `CNC(=O)ON=CC(C)(C)S(C)=O` (configuration not stated) [Aldicarb-sulfoxide] are within 1.5-fold of each other in LC retention time: 5.02 min for the first, 3.5 min for the second.

`CN(C)CCOCC(=O)NC12CC3CC(CC(C3)C1)C2` [Tromantadine] and `CCN(CC)CC#CCOC(=O)C(O)(c1ccccc1)C1CCCCC1` (configuration not stated) [Oxybutynin] are within 1.5-fold of each other in LC retention time: 6.64 min for the first, 8.92 min for the second.

Going from `CC(C)=CC1C(C(=O)OCN2C(=O)C3=C(CCCC3)C2=O)C1(C)C` (configuration not stated) [Tetramethrin] to `CC1C(=O)OC2CC[N+]3([O-])CC=C(COC(=O)C(C)(O)C1(C)O)C23` (configuration not stated) [Monocrotaline-N-oxide], the LC retention time falls from 12.2 min to 3.19 min (3.8-fold).

First: COc1cccc(C(=O)CCNC(C)C(O)c2ccccc2)c1 (configuration not stated) [Oxyfedrine]
Second: CCCCCn1cc(C(=O)Cc2cccc(OC)c2)c2ccccc21 [JWH-302]
The LC retention time of the first is 1.9-fold lower: 6.14 min for the first, 11.6 min for the second.

`CCCCCn1cc(C(=O)Cc2ccc(OC)cc2)c2ccccc21` [JWH-201] and `CCCCCCn1cc(C(=O)c2cccc3ccccc23)c2ccccc21` [JWH-019] are within 1.5-fold of each other in LC retention time: 11.6 min for the first, 12.9 min for the second.

Going from `NNC(=O)c1ccncc1` [Isoniazide] to `CCc1nn(C)c(C(=O)NCc2ccc(C(C)(C)C)cc2)c1Cl` [Tebufenpyrad], the LC retention time rises from 2.18 min to 12.2 min (5.6-fold).

`O=C(Oc1cccc2ccccc12)c1cn(CCCCCF)c2ccccc12` [NM-2201] and `O=C(O)Cc1cn(-c2ccccc2)nc1-c1ccc(Cl)cc1` [Lonazolac] are within 1.5-fold of each other in LC retention time: 12.4 min for the first, 10.4 min for the second.

`CCC(=O)OC(Cc1ccccc1)(c1ccccc1)C(C)CNC` (configuration not stated) [Nordextropropoxyphene] and `CN(C)CCOC(c1ccccc1)c1ccccc1` [Diphenhydramine] are within 1.5-fold of each other in LC retention time: 7.84 min for the first, 6.63 min for the second.

Going from `C=CCC(C(=O)NC(N)=O)C(C)C` (configuration not stated) [Apronalide] to `C=C(C)C(N)=O` [Methacrylamide], the LC retention time falls from 6.94 min to 2.81 min (2.5-fold).

`COc1ncc(F)c2nc(S(=O)(=O)Nc3c(F)cccc3F)nn12` [Florasulam] and `COc1cc(OC)nc(NC(=O)NS(=O)(=O)c2ncccc2C(F)(F)F)n1` [Flazasulfuron] are within 1.5-fold of each other in LC retention time: 5.75 min for the first, 8.56 min for the second.

Compared with `CCN(Cc1ccc(Cl)nc1)C(=C[N+](=O)[O-])NC` [Nitenpyram], `CCN(CC)C(=O)C(C#N)=Cc1cc(O)c(O)c([N+](=O)[O-])c1` [Entacapon] is 1.8-fold higher in LC retention time: 3.9 min for the first, 6.89 min for the second.

`CC(C)(C(=O)O)c1ccc(C(O)CCCN2CCC(C(O)(c3ccccc3)c3ccccc3)CC2)cc1` (configuration not stated) [Fexofenadine] and `c1ccc(C(CCN2CCCCC2)c2ccccc2)cc1` [Fenpiprane] are within 1.5-fold of each other in LC retention time: 7.68 min for the first, 6.82 min for the second.

`Cc1nnc2n1-c1ccc([N+](=O)[O-])cc1C(c1ccccc1Cl)=NC2` [Clonazolam] and `COC(=O)C1=C(C)NC(C)=C(C(=O)OCCN(C)Cc2ccccc2)C1c1cccc([N+](=O)[O-])c1` (configuration not stated) [Nicardipine] are within 1.5-fold of each other in LC retention time: 7.24 min for the first, 8.39 min for the second.

Going from `c1ccc2c(c1)[nH]c1ccncc12` [5-Carboline] to `CCN(CC)CCc1c[nH]c2ccccc12` [DET], the LC retention time falls from 8.7 min to 4.34 min (2-fold).

`O=Cc1ccccc1Nc1ccccc1Cl` [2-(2-(Chlorophenyl)amino)benzaldehyde] and `CC(C)CC(C)Nc1ccc(Nc2ccccc2)cc1` (configuration not stated) [Diphenylamin-4-(dimethylbutylamino) (6PPD)] are within 1.5-fold of each other in LC retention time: 11.4 min for the first, 9.92 min for the second.

`COP(=O)(OC)Oc1ccc([N+](=O)[O-])cc1` [Paraoxon-methyl] and `Cc1ccc(N)c(C)c1` [Dimethylaniline (2.4-) (Metabolite Amitraz)] are within 1.5-fold of each other in LC retention time: 6.36 min for the first, 5.04 min for the second.

First: Cn1cc[nH]c1=S [Methimazole]
Second: CNC(=O)Oc1cc(C)c(N(C)C)c(C)c1 [Mexacarbate]
The LC retention time of the first is 3.6-fold lower: 2.61 min for the first, 9.3 min for the second.

`CCCCCCCCCCCCCC[N+](C)(C)Cc1ccccc1` [Benzyldimethyltetradecylammonium] and `COC(=O)C1Cc2c([nH]c3ccccc23)C(c2ccc3c(c2)OCO3)N1C(=O)CCl` (configuration not stated) [Chloropretadalafil] are within 1.5-fold of each other in LC retention time: 12.2 min for the first, 9.34 min for the second.

First: CNC(=O)Oc1cc(C)c(SC)c(C)c1 [Methiocarb (Mercaptodimethur)]
Second: CCC(Cc1ccc2c(c1)OCO2)NC (configuration not stated) [MBDB]
The LC retention time of the first is 2-fold higher: 9.34 min for the first, 4.66 min for the second.
